How the values were obtained:
[1] = tested on: recombinant human anti-SARS-CoV antibody 03-018; format: binding; set-up: Binding of antibody 03-018 to linear peptides of the N protein of SARS-CoV Urbani / Binding of antibody 03-018 to looped/cyclic peptides of the N protein of SARS-CoV Urbani: unit not given here
[2] = tested on: rabbit serum obtained by immunizing a rabbit with the SARS-CoV strain Frankfurt 1; format: binding; set-up: Binding of a rabbit serum to linear peptides / Binding of a rabbit serum to looped peptides / Rabbit serum linear peptides / Rabbit serum looped peptides / Binding of a rabbit serum to linear peptides of protein N of SARS-CoV Urbani (Rabbit serum linear peptides) / Binding of a rabbit serum to looped/cyclic peptides of protein N of SARS-CoV Urbani (Rabbit serum looped peptides): unit not given here
[3] = tested on: antibodies in sera from SARS patients (sera 1a, 1b, 2, 6, 37, 62, London, SARS-yellow, SARS-green); format: binding, human; set-up: Binding of serum 6 to linear peptides of protein X1 of SARS-CoV Urbani / Binding of serum 37 to linear peptides of protein X1 of SARS-CoV Urbani / Binding of serum 6 to looped/cyclic peptide (PEPSCAN-ELISA) / Binding of serum 37 to looped/cyclic peptide (PEPSCAN-ELISA) / Binding of serum 37 to looped/cyclic peptides of protein X1 of SARS-CoV Urbani / Binding of serum 6 to linear peptides of protein X2 / Binding of serum 37 to linear peptides of protein X2 / Binding of serum 37 to looped/cyclic peptides of protein X2 of SARS-CoV Urbani / Binding of serum 6 to linear peptides of protein M of SARS-CoV Urbani / Binding of serum 37 to linear peptides of protein M of SARS-CoV Urbani / Binding of serum 6 to looped/cyclic peptides of protein M of SARS-CoV Urbani / Binding of serum 37 to looped/cyclic peptides of protein M of SARS-CoV Urbani / Binding of serum 6 to linear peptides of protein X3 of SARS-CoV Urbani / Binding of serum 37 to linear peptides of protein X3 of SARS-CoV Urbani / Binding of serum 37 to looped/cyclic peptides of protein X3 of SARS-CoV Urbani / Binding of serum 6 to linear peptides of protein X4 of SARS-CoV Urbani / Binding of serum 37 to linear peptides of protein X4 of SARS-CoV Urbani / Binding of serum 37 to looped/cyclic peptides of protein X4 of SARS-CoV Urbani / Binding of serum 6 to linear peptides of protein X5 of SARS-CoV Urbani / Binding of serum 37 to linear peptides of protein X5 of SARS-CoV Urbani / Binding of serum 37 to looped/cyclic peptides of protein X5 of SARS-CoV Urbani / Binding of serum 6 to linear peptides of protein N of SARS-CoV Urbani / Binding of serum 37 to linear peptides of protein N of SARS-CoV Urbani / Binding of serum 6 to linear peptide (PEPSCAN-ELISA) / Binding of serum 1a to looped/cyclic peptides of protein N of SARS-CoV Urbani / Binding of serum 1b to looped/cyclic peptides of protein N of SARS-CoV Urbani / Binding of serum 2 to looped/cyclic peptides of protein N of SARS-CoV Urbani / Binding of serum 6 to looped/cyclic peptides of protein N of SARS-CoV Urbani / Binding of serum 37 to looped/cyclic peptides of protein N of SARS-CoV Urbani / Binding of serum 62 to looped/cyclic peptides of protein N of SARS-CoV Urbani / Binding of serum London to looped/cyclic peptides of protein N of SARS-CoV Urbani / Binding of serum SARS-green to looped/cyclic peptides of protein N of SARS-CoV Urbani: unit not given here
[4] = tested on: control sera (pooled serum of ten healthy LUMC hospital workers; commercial negative donor pooled serum from the Dutch bloodbank); format: binding, human; set-up: Binding of Control serum LUMC to linear peptides / Binding of Control serum Blood-bank to linear peptides / Binding of Control serum LUMC to looped peptides / Binding of Control Serum Blood-Bank to Looped peptides / Binding of Control serum LUMC to linear peptides of the protein M of SARS-CoV Urbani / Binding of Control serum Blood-bank to linear peptides of the protein M of SARS-CoV Urbani / Binding of Control serum LUMC to looped peptides of the protein M of SARS-CoV Urbani / Binding of Control Serum Blood-Bank to Looped peptides of the protein M of SARS-CoV Urbani: unit not given here

Sequence	Binding of antibody 03-018 to linear peptides of the N protein of SARS-CoV Urbani [1]	Binding of antibody 03-018 to looped/cyclic peptides of the N protein of SARS-CoV Urbani [1]	Binding of a rabbit serum to linear peptides of protein N of SARS-CoV Urbani (Rabbit serum linear peptides) [2]	Binding of a rabbit serum to looped/cyclic peptides of protein N of SARS-CoV Urbani (Rabbit serum looped peptides) [2]	Binding of serum 1a to linear peptide (PEPSCAN-ELISA) [3]	Binding of serum 1a to looped/cyclic peptides of protein N of SARS-CoV Urbani [3]	Binding of serum 1b to linear peptide (PEPSCAN-ELISA) [3]	Binding of serum 1b to looped/cyclic peptides of protein N of SARS-CoV Urbani [3]	Binding of serum 2 to linear peptide (PEPSCAN-ELISA) [3]	Binding of serum 2 to looped/cyclic peptides of protein N of SARS-CoV Urbani [3]	Binding of serum 6 to linear peptide (PEPSCAN-ELISA) [3]	Binding of serum 6 to looped/cyclic peptides of protein N of SARS-CoV Urbani [3]	Binding of serum 37 to linear peptide (PEPSCAN-ELISA) [3]	Binding of serum 37 to looped/cyclic peptides of protein N of SARS-CoV Urbani [3]	Binding of serum 62 to linear peptide (PEPSCAN-ELISA) [3]	Binding of serum 62 to looped/cyclic peptides of protein N of SARS-CoV Urbani [3]	Binding of serum London to linear peptide (PEPSCAN-ELISA) [3]	Binding of serum London to looped/cyclic peptides of protein N of SARS-CoV Urbani [3]	Binding of serum SARS-green to looped/cyclic peptides of protein N of SARS-CoV Urbani [3]	Binding of serum SARS-yellow to looped/cyclic peptides of protein N of SARS-CoV Urbani [3]	also measured
ASKKPRQKRTATKQY	0.1	0.2	0.2	0.4	0.2	0.3	0.1	0.1	0.3	0.3	0.2	0.2	0.7	0.5	0.6	0.5	0.5	0.4	0.1	0.2	Binding of serum SARS-green to linear peptide (PEPSCAN-ELISA) [3]: 0.3; Binding of serum SARS-yellow to linear peptide (PEPSCAN-ELISA) [3]: 0.5; Binding of Control Serum Blood-Bank to Looped peptides [4]: 0.6; Binding of Control serum Blood-bank to linear peptides [4]: 0.7; Binding of Control serum LUMC to linear peptides [4]: 0.6; Binding of Control serum LUMC to looped peptides [4]: 0.5
ASSRSSSRSRGNSRN	0.1	0.2	0.3	0.7	0.2	0.3	0.1	0.2	0.2	0.4	0.2	0.3	0.6	0.6	0.5	0.5	0.5	0.4	0.2	0.4	Binding of serum SARS-green to linear peptide (PEPSCAN-ELISA) [3]: 0.3; Binding of serum SARS-yellow to linear peptide (PEPSCAN-ELISA) [3]: 0.7; Binding of Control Serum Blood-Bank to Looped peptides [4]: 0.6; Binding of Control serum Blood-bank to linear peptides [4]: 0.6; Binding of Control serum LUMC to linear peptides [4]: 0.7; Binding of Control serum LUMC to looped peptides [4]: 0.6
ATKQYNVTQAFGRRG	0.1	0.3			0.3	0.4	0.2	0.3	0.2	0.5	0.2	0.5	0.7	0.7	0.6	0.7	0.5	1.2	0.2	0.8	Recognition of the peptide by the rabbit serum [2]: recognized; Binding of serum SARS-green to linear peptide (PEPSCAN-ELISA) [3]: 0.3; Binding of serum SARS-yellow to linear peptide (PEPSCAN-ELISA) [3]: 0.8; Binding of Control Serum Blood-Bank to Looped peptides [4]: 0.8; Binding of Control serum Blood-bank to linear peptides [4]: 0.9; Binding of Control serum LUMC to linear peptides [4]: 0.8; Binding of Control serum LUMC to looped peptides [4]: 0.8
AYKTFPPTEPKKDKK	0.1	0.1	0.2	0.0		0.1		0.1		0.2		0.0		0.2		0.1		0.1	0.0	0.0	Binding of serum 1a to linear peptides of protein N of SARS-CoV Urbani [3]: 0.2; Binding of serum 1b to linear peptides of protein N of SARS-CoV Urbani [3]: 0.1; Binding of serum 2 to linear peptides of protein N of SARS-CoV Urbani [3]: 0.3; Binding of serum 6 to linear peptides of protein N of SARS-CoV Urbani [3]: 0.2; Binding of serum 37 to linear peptides of protein N of SARS-CoV Urbani [3]: 0.7; Binding of serum 62 to linear peptides of protein N of SARS-CoV Urbani [3]: 0.8; Binding of serum London to linear peptides of protein N of SARS-CoV Urbani [3]: 0.6; Binding of serum SARS-green to linear peptides of protein N of SARS-CoV Urbani [3]: 0.3; Binding of serum SARS-yellow to linear peptides of protein N of SARS-CoV Urbani [3]: 0.7; Control Serum Blood-Bank Looped peptides [4]: 0.3; Control serum Blood-bank linear peptides [4]: 0.7; Control serum LUMC linear peptides [4]: 0.6; Control serum LUMC looped peptides [4]: 0.1
